The target of assay [1] is T1, MAO A (Rattus norvegicus, UniProt P21396).
T1 construct: from tissue; host or cells: rat brain homogenate
T1 sequence (P21396 1-526): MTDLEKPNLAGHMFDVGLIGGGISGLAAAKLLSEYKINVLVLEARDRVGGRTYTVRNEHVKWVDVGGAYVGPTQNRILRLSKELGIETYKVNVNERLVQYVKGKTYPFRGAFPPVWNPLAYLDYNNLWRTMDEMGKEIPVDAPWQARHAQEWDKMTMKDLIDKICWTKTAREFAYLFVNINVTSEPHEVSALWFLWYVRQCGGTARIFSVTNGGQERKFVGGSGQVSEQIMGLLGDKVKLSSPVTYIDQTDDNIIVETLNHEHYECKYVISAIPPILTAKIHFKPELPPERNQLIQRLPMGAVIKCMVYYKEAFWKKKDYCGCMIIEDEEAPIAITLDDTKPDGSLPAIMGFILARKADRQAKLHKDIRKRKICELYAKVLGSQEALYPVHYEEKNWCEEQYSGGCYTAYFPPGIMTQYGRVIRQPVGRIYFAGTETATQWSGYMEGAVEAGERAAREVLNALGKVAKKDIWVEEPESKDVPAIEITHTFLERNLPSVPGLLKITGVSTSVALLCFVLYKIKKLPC
Briefly: MAO A inhibition in dilute rat brain homogenate. The class given is biochemical. The following applies: 14C-phenylethylamine or 14C-tryptamine 0.4 μmol/l, 37° C., 20 min. The method, then: (§1) The MAO-inhibiting activity of the compounds according to the invention can be determined using standard methods. Thus, monoamine oxidases A and B were determined in dilute rat brain homogenate to which test substances in various concentrations and ^14 C-phenylethylamine or ^14 C-tryptamine in a concentration of 0.4 μmol/l were added. This mixture was incubated at 37° C. for 20 min.
(§2) The reaction was then stopped with 0.1 normal HCl, and the products were determined after extraction in a toluene scintillator (PPO+POPOP in toluene). The blank was determined on a similar mixture with an incubation time of 0 min.
(§3) The median inhibitory concentration (IC50) was calculated by linear regression after logit-log transformation from the values for the inhibition at the various concentrations relative to the control.

The target in assay [2] is T2, MAO B (Rattus norvegicus, UniProt P19643).
T2 construct: from tissue; host or cells: rat brain homogenate
T2 sequence (P19643 1-520): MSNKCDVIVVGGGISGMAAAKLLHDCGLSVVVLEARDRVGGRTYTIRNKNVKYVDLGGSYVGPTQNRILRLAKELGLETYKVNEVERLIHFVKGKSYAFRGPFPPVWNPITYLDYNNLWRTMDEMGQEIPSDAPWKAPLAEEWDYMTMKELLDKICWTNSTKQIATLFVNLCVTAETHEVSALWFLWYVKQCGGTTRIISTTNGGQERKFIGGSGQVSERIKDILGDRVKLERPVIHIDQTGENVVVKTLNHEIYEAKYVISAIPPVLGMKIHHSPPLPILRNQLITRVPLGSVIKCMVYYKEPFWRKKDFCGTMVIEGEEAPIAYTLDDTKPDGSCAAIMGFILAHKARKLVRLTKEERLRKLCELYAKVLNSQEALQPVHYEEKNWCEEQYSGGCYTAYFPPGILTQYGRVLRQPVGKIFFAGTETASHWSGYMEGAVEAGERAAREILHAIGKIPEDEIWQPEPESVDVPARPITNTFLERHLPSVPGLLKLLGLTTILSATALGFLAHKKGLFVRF
As to the kind of experiment: MAO B inhibition in dilute rat brain homogenate. Format: biochemical. The following applies: 20 min; for IC50: dilute rat brain homogenate, 14C-phenylethylamine or 14C-tryptamine 0.4 μmol/l, 37° C.; for MAO A / MAO B IC50 ratio: selectivity for MAO B over MAO A, rat brain homogenate. The method, then:
as §1, §2, §3

Where only a bound is given, the exact number is not on record here.

The term IC50 denotes the concentration at which inhibition is half-maximal. A low value points to inhibition by little substance.

Regarding `Cc1c(C)c2cc(Cl)c(OCc3nnc(C4CC4)s3)cc2oc1=S` [Example 14, 6-Chloro-3,4-dimethyl-7-(2-cyclopropyl-1,3,4-thiadiazol-5-ylmethoxy)-2-thiocoumarin], in assay [1], the concentration for half-maximal inhibition (IC50) is more than 10000 nM. In assay [2], 6 nM corresponded to half-maximal inhibition (IC50) and the “MAO A / MAO B IC50 ratio” value was more than 1667.
Taken in the same sequence, the figures for `CCCc1nnc(COc2ccc3c(C)c(C)c(=S)oc3c2)s1` [Example 4, 3,4-Dimethyl-7-(2-n-propyl-1,3,4-thiadiazol-5-ylmethoxy)-2-thiocoumarin] were not below 10000 nM, 2 nM and more than 5000.
Take `Cc1c(C)c2ccc(OCc3nnc(C(C)C)s3)cc2oc1=S` [Example 1, 3,4-Dimethyl-7-(2-isopropyl-1,3,4-thiadiazol-5-ylmethoxy)-2-thiocoumarin]: the concentration for half-maximal inhibition (IC50) in assay [1] was more than 10000 nM; in assay [2], 1 nM. In assay [2], the “MAO A / MAO B IC50 ratio” value is recorded as > 10,000.
For `Cc1nnc(COc2ccc3c(C)c(C)c(=S)oc3c2)o1` [Example 3, 3,4-Dimethyl-7-(2-methyl-1,3,4-oxadiazol-5-ylmethoxy)-2-thiocoumarin] the same measures were more than 10000 nM, 10 nM and more than 1000.
For `Cc1c(C)c2ccc(OCc3csc(C(C)C)n3)cc2oc1=S` [Example 2, 3,4-Dimethyl-7-(2-isopropylthiazol-4-ylmethoxy)-2-thiocoumarin] the same measures were more than 10000 nM, 3 nM and more than 3333.
In the case of `Cc1c(C)c2cc(Cl)c(OCc3nnc(C(C)C)s3)cc2oc1=S` [Example 13, 6-Chloro-3,4-dimethyl-7-(2-isopropyl-1,3,4-thiadiazol-5-ylmethoxy)-2-thiocoumarin], the IC50 in assay [1] is more than 10000 nM. In assay [2], the concentration for half-maximal inhibition (IC50) was 3 nM and the “MAO A / MAO B IC50 ratio” value is listed as more than 3333.
As to `CC(C)c1ccc(COc2ccc3ccc(=S)oc3c2)cc1` [Example 12, 7-(4-Isopropylbenzyloxy)-2-thiocoumarin], the figures for the 50% inhibitory concentration (IC50) in assay [1] and in assay [2] were not below 10000 nM and 3 nM, respectively. Moreover, the “MAO A / MAO B IC50 ratio” value in assay [2] is more than 3333.
